We go through 24 compounds from US20250042862A1, “AROMATIC HETEROCYCLIC COMPOUND AND APPLICATION THEREOF” (Shanghai Institute of Materia Medica, Chinese Academy of …, priority 2021, published 2025).

The subject of the first experiment is MV4-11 cell line transplanted tumor. As to the kind of experiment: In vivo efficacy evaluation in mouse transplanted tumor model. The arrangement: species or system mouse (female NU/NU nude mice). To be noted: MV4-11 xenograft in NU/NU nude mice; 20 mg/kg by gavage every day for 21 days. As to the method:
Experimental purpose: To test the in vivo efficacy of compounds in mouse transplanted tumor model Experimental materials: female NU/NU nude mice, MV4-11 cell line Experimental methods: female NU/NU nude mice, weighing 20±2 g, were inoculated with MV4-11 cell line in the right axillary subcutaneous with a cell inoculation amount of 5×10^6/mouse. When the tumor formed, the diameter of the transplanted tumor was measured with vernier calipers, and the tumor was grew up to 100-300 mm^3; the animals were divided into model control group and administration group according to their weights and tumor volumes, with 6 animals per group. The administration group was administered with a suspension ground with 0.5% CMC-Na, while the model control group was given an equal amount of blank solvent. After grouping, the drug was administered orally every day at a dose of 20 mg/kg for 21 days. During the experiment, the diameter of the transplanted tumor was measured and the weight of the mice was weighed twice a week, and the tumor tissues were taken from the animal after euthanasia on the 21st day. […]
`N#Cc1ccc(-c2nc(N3CCC[C@@H](N)CC3)nc3ccc(-c4c(F)cccc4C(F)(F)F)cc23)cc1F` (stereo in doubt) [Compound 89, 4-(2-(4-aminoazepan-1-yl)-6-(2-fluoro-6-(trifluoromethyl)phenyl)quinazolin-4-yl)-2-fluorobenzonitrile]: the “relative tumor proliferation rate T/C” value is listed as “less than 50%”.

In the case of `N#Cc1ccc(-c2nc(N3CCC(N)CC3)nc3ccc(-c4c(F)cccc4C(F)(F)F)cc23)cc1F` [Compound 19, 4-(2-(4-aminopiperidin-1-yl)-6-(2-fluoro-6-(trifluoromethyl)phenyl)quinazolin-4-yl)-2-fluorobenzonitrile], the “relative tumor proliferation rate T/C” value was “less than 50%”.

The target in another experiment is human recombinant LSD1 protein (Homo sapiens (Human), UniProt O60341). The experiment in a line: In vitro enzyme inhibition activity assay - LSD1 (Lance Ultra TR-FRET). The experiment is classed as biochemical. As to conditions: all compounds tested in the form of hydrochloride. The procedure: The purpose of this experiment was to test the in vitro inhibitory activity of the compounds against LSD1. The human recombinant LSD1 protein used in the experiment was purchased from Active Motif, and the enzyme level activity testing assay of LSD1 was performed using the Lance Ultra LSD1 Histone H3 Lysine 4 Demethylase Assay Kit (PerkinElmer). Tris-buffer (50 mMTris-HCl, 50 mMNaCl, 0.01% Tween-20, 1 mM DTT, 10 μM FAD, 10% glycerol, pH 9.0) was first prepared, and after preparation, the LSD1 fractions required for test were placed in this buffer and incubated for one hour at room temperature; the fractions included 4 μL of substrate solution ([…] Bio-H3K4me2, 1-24aa), 4 μL of enzyme solution (4 nM LSD1), and 2 μL of inhibitor in a 384-well microplate. After these operations, another 5 μL of assay mixture containing Eu-labeled H3K4me0 antibody and ULight-Streptavidin anti-biotin protein was added to the system, after which the fluorescence intensity of the components to be tested was detected by using Envision (PerkinElmer) in TR-FRET mode (excitation wavelength of 320 nm, emission wavelength of 620 nm). The test was repeated a total of three times to minimize errors. The final IC50 data were calculated by the software GraphPad Prism 5, and finally the sigmoidal dose-response (variable slope) method was used to obtain the fitted curve.
The LSD1 inhibitory activities of representative compounds of the present application as well as the positive control compound CC90011 were provided in Table 2. All compounds were tested in the form of hydrochloride.
A general note: TR-FRET usually uses a lanthanide donor and a delayed reading to cut background.
Broadly, the IC50 is the concentration needed to halve the response being measured. Turning to `N#Cc1ccc(-c2nc(N3CCC[C@@H](N)CC3)nc3ccc(-c4c(F)cccc4C(F)(F)F)cc23)cc1F` (stereo in doubt) [Compound 89, 4-(2-(4-aminoazepan-1-yl)-6-(2-fluoro-6-(trifluoromethyl)phenyl)quinazolin-4-yl)-2-fluorobenzonitrile], the half-inhibitory concentration (IC50) was at most 30 nM.

For the compound `N#Cc1ccc(-c2nc(N3CCC(N)CC3)nc3ccc(-c4c(F)cccc4C(F)(F)F)cc23)cc1F` [Compound 19, 4-(2-(4-aminopiperidin-1-yl)-6-(2-fluoro-6-(trifluoromethyl)phenyl)quinazolin-4-yl)-2-fluorobenzonitrile], the IC50 was at most 30 nM.

As for `N#Cc1ccc(-c2nc(N3CCC[C@@H](N)C3)nc3ccc(-c4c(F)cccc4C(F)(F)F)cc23)cc1F` [Compound 74, (R)-4-(2-(3-aminopiperidin-1-yl)-6-(2-fluoro-6-(trifluoromethyl)phenyl)quinazolin-4-yl)-2-fluorobenzonitrile], the IC50 is at most 30 nM. With `N#Cc1ccc(-c2nc(N3CCC[C@H](N)C3)nc3ccc(-c4c(F)cccc4C(F)(F)F)cc23)cc1F` [Compound 75, (S)-4-(2-(3-aminopiperidin-1-yl)-6-(2-fluoro-6-(trifluoromethyl)phenyl)quinazolin-4-yl)-2-fluorobenzonitrile], the IC50 is 30 to 300 nM. As to `N#Cc1ccc(-c2nc(N3CCC4NCCC4C3)nc3ccc(-c4c(F)cccc4C(F)(F)F)cc23)cc1F` (centres unmarked) [Compound 76, 2-Fluoro-4-(6-(2-fluoro-6-(trifluoromethyl)phenyl)-2-(octahydro-5H-pyrrolo[3,2-c]pyridin-5-yl)quinazolin-4-yl)benzonitrile], the IC50 was at most 30 nM. With `N#Cc1ccc(-c2nc(N3CCC4(CCCN4)CC3)nc3ccc(-c4c(F)cccc4C(F)(F)F)cc23)cc1F` [Compound 77, 2-Fluoro-4-(6-(2-fluoro-6-(trifluoromethyl)phenyl)-2-(1,8-diazaspiro[4.5]dec-8-yl)quinazolin-4-yl)benzonitrile], the IC50 is at most 30 nM. Same read-out and setting: in the case of `N#Cc1ccc(-c2nc(N3CCC(N)CC3)nc3cc(F)c(-c4ccccc4F)cc23)cc1F` [Compound 78, 4-(2-(4-aminopiperidin-1-yl)-7-fluoro-6-(2-fluorophenyl)quinazolin-4-yl)-2-fluorobenzonitrile] it was at most 30 nM. `N#Cc1ccc(-c2nc(N3CCC(N)CC3)nc3cc(F)c(-c4ccccc4C(F)(F)F)cc23)cc1F` [Compound 79, 4-(2-(4-Aminopiperidin-1-yl)-7-fluoro-6-(2-(trifluoromethyl)phenyl)quinazolin-4-yl)-2-fluorobenzonitrile]: the IC50 was 30 to 300 nM. Same read-out and setting: to `N#Cc1ccc(-c2nc(N3CCC(N)CC3)nc3c(F)cc(-c4ccccc4C(F)(F)F)cc23)cc1F` [Compound 80, 4-(2-(4-aminopiperidin-1-yl)-8-fluoro-6-(2-trifluoromethylphenyl)quinazolin-4-yl)-2-fluorobenzonitrile] belongs at most 30 nM; to `N#Cc1ccc(-c2nc(N3CCC(N)CC3)nc3c(F)cc(-c4ccccc4F)cc23)cc1F` [Compound 81], 30 to 300 nM; to `N#Cc1ccc(-c2nc(N3CCC(N)CC3)nc3c(F)cc(-c4c(F)cccc4C(F)(F)F)cc23)cc1F` [Compound 82], at most 30 nM. The same measure, in the same setting: to `N#Cc1ccc(-c2nc(N3CC[C@@H](N)[C@@H](F)C3)nc3ccc(-c4c(F)cccc4C(F)(F)F)cc23)cc1F` [Compound 83, 4-(2-((3S,4R)-4-amino-3-fluoropiperidin-1-yl)-6-(2-fluoro-6-(trifluoromethyl)phenyl)quinazolin-4-yl)-2-fluorobenzonitrile] belongs 30 to 300 nM; to `N#Cc1ccc(-c2nc(N3CC[C@@H](N)[C@H](F)C3)nc3ccc(-c4c(F)cccc4C(F)(F)F)cc23)cc1F` [Compound 84, 4-(2-((3R,4R)-4-amino-3-fluoropiperidin-1-yl)-6-(2-fluoro-6-(trifluoromethyl)phenyl)quinazolin-4-yl)-2-fluorobenzonitrile], 30 to 300 nM; to `N#Cc1ccc(-c2nc(N3CC[C@H](N)[C@@H](F)C3)nc3ccc(-c4c(F)cccc4C(F)(F)F)cc23)cc1F` [Compound 85, 4-(2-((3S,4S)-4-amino-3-fluoropiperidin-1-yl)-6-(2-fluoro-6-(trifluoromethyl)phenyl)quinazolin-4-yl)-2-fluorobenzonitrile], 30 to 300 nM.

For the compound `N#Cc1ccc(-c2nc(N3CCCC[C@H](N)C3)nc3ccc(-c4c(F)cccc4C(F)(F)F)cc23)cc1F` [Compound 86, (S)-4-(2-(3-aminoazepan-1-yl)-6-(2-fluoro-6-(trifluoromethyl)phenyl)quinazolin-4-yl)-2-fluorobenzonitrile], the IC50 was at most 30 nM. As for `N#Cc1ccc(-c2nc(N3CCCC[C@@H](N)C3)nc3ccc(-c4c(F)cccc4C(F)(F)F)cc23)cc1F` [Compound 87, (R)-4-(2-(3-aminoazepan-1-yl)-6-(2-fluoro-6-(trifluoromethyl)phenyl)quinazolin-4-yl)-2-fluorobenzonitrile], the IC50 was at most 30 nM. As to `N#Cc1ccc(-c2nc(N3CCC[C@H](N)CC3)nc3ccc(-c4c(F)cccc4C(F)(F)F)cc23)cc1F` [Compound 88, (S)-4-(2-(4-aminoazepan-1-yl)-6-(2-fluoro-6-(trifluoromethyl)phenyl)quinazolin-4-yl)-2-fluorobenzonitrile], the IC50 is at most 30 nM. Turning to `N#Cc1ccc(-c2nc(N3CC[C@H](N)C3)nc3ccc(-c4c(F)cccc4C(F)(F)F)cc23)cc1F` [Compound 90, (S)-4-(2-(3-aminopyrrolidin-1-yl)-6-(2-fluoro-6-(trifluoromethyl)phenyl)quinazolin-4-yl)-2-fluorobenzonitrile], the IC50 is at most 30 nM. Consider `N#Cc1ccc(-c2nc(N3CC[C@@H](N)C3)nc3ccc(-c4c(F)cccc4C(F)(F)F)cc23)cc1F` [Compound 91, (R)-4-(2-(3-aminopyrrolidin-1-yl)-6-(2-fluoro-6-(trifluoromethyl)phenyl)quinazolin-4-yl)-2-fluorobenzonitrile], for which the IC50 is at most 30 nM. In the case of `N#Cc1ccc(-c2nc(N3CCC(N)CC3)nc3c2CN(c2ccccc2C(F)(F)F)CC3)cc1F` [Compound 92, 4-(2-(4-aminopiperidin-1-yl)-6-(2-(trifluoromethyl)phenyl)-5,6,7,8-tetrahydropyrido[4,3-d]pyrimidin-4-yl)-2-fluorobenzonitrile], the IC50 lay within 30 to 300 nM. As for `N#Cc1ccc(-c2nc(N3CCC(N)CC3)nc3c2CN(c2c(F)cccc2C(F)(F)F)CC3)cc1F` [Compound 93, 4-(2-(4-aminopiperidin-1-yl)-6-(2-fluoro-6-(trifluoromethyl)phenyl)-5,6,7,8-tetrahydropyrido[4,3-d]pyrimidin-4-yl)-2-fluorobenzonitrile], the IC50 lay within 30 to 300 nM. Same read-out and setting: in the case of `Cn1ncc2cccc(N3CCc4nc(N5CCC(N)CC5)nc(-c5ccc(C#N)c(F)c5)c4C3)c21` [Compound 94, 4-(2-(4-aminopiperidin-1-yl)-6-(1-methyl-1H-indazol-7-yl)-5,6,7,8-tetrahydropyrido[4,3-d]pyrimidin-4-yl)-2-fluorobenzonitrile] it was 30 to 300 nM.

Regarding `N#Cc1ccc(-c2nc(N3CCC(N)CC3)cc3ccc(-c4c(F)cccc4C(F)(F)F)cc23)cc1F` [Compound 98, 4-(3-(4-Aminopiperidin-1-yl)-7-(2-fluoro-6-(trifluoromethyl)phenyl)isoquinolin-1-yl)-2-fluorobenzonitrile], the IC50 was at most 30 nM. Consider `Cn1c(=O)c(-c2ccccc2C(F)(F)F)cc2c(-c3ccc(C#N)c(F)c3)nc(N3CCC(N)CC3)nc21` [Compound 99, 4-(2-(4-aminopiperidin-1-yl)-8-methyl-7-oxo-6-(2-trifluoromethylphenyl)-7,8-dihydropyrido[2,3-d]pyrimidin-4-yl)-2-fluorobenzonitrile], for which the IC50 was at most 30 nM.
